Measured values as given in patent publication US20250296938A1, “Compounds that Interact with the Ras Superfamily for the Treatment of Cancers, Inflammatory Diseases, Rasopathies, and Fibrotic Disease” (SHY Therapeutics, LLC, priority 2018, published 2025).
Where two headings read alike, the source gives them in different places.

Tests used:
Assay in all cases: Ras GTP binding domain inhibition assay (Cy3-GTP/Cy5-GTP competition)
KRas Q61H mutant = system: KRas Q61H mutant; design: species or system human; details: 20 μM
Summary of the method: (§1)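 Compounds tested at 20 μM or in serial dilution for IC50 against nickel-captured His-tagged GTPase, 3 hours at room temperature, with or without His-Sos GEF added for last hour. Fluorescent GTP then added at 100 nM for 45 minutes; wells washed, bound label measured by fluorescence.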

KRas wild type = system: KRas wild type; design: species or system human; details: 20 μM; for KRas wild type % inh.: without SOS (Table 7A); for KRas wild type: % inh.: without SOS
Summary of the method: as §1

KRas G12C mutant = system: KRas G12C mutant; design: species or system human; details: 20 μM
Summary of the method: as §1

KRas G12D mutant = target: T1, KRas G12D mutant (Homo sapiens, UniProt P01116, G12D); details: 20 μM
T1 construct: fused on or other part: His tag, used for capture on nickel-coated plates
Summary of the method: as §1

[1] = with SOS (Table 7A), read-out: KRas G12D mutant + SOS: % inh.
[2] = without SOS (Table 7A), read-out: KRas G12D mutant: % inh.
[3] = with SOS, read-out: KRas G-12D mutant + SOS: % inh.
[4] = without SOS, read-out: KRas G12D mutant: % inh.

Row | SMILES | KRas Q61H mutant + SOS: % inh. (KRas Q61H mutant; with SOS (Table 7A)) | KRas Q61H mutant: % inh. (KRas Q61H mutant; without SOS (Table 7A)) | KRas wild type + SOS: % inh. (KRas wild type; with SOS (Table 7A)) | KRas wild type % inh. (KRas wild type) | KRas G12C mutant + SOS: % inh. (KRas G12C mutant; with SOS (Table 7A)) | KRas G12C mutant: % inh. (KRas G12C mutant; without SOS (Table 7A)) | inhibition at 20 µM (KRas G12D mutant; [1]) | inhibition at 20 µM (KRas G12D mutant; [2]) | KRas Q61H mutant + SOS: % inh. (KRas Q61H mutant; with SOS) | KRas Q61H mutant: % inh. (KRas Q61H mutant; without SOS) | KRas wild type + SOS: % inh. (KRas wild type; with SOS) | KRas wild type: % inh. (KRas wild type) | KRas G12C mutant + SOS: % inh. (KRas G12C mutant; with SOS) | KRas G12C mutant: % inh. (KRas G12C mutant; without SOS) | inhibition at 20 µM (KRas G12D mutant; [3]) | inhibition at 20 µM (KRas G12D mutant; [4])
1 | Cn1ccc(-c2sc3nc(-c4nccn4C)nc(N[C@H]4C[C@@H](O)C4)c3c2-c2ccccc2)n1 [drawing 908] | 0 (0% inhibition) | A (1-25% inhibition) | 0 (0% inhibition) | A (1-25% inhibition) | A (1-25% inhibition) | A (1-25% inhibition) | 0% | 0% | – | – | – | – | – | – | – | –
2 | COc1ccc(-c2c(-c3cccc(OC)c3F)sc3nc(-c4nccn4C)nc(N4CCC(OC)C4)c23)cc1 (stereo not drawn) [drawing 806] | – | – | – | – | – | – | – | – | D (76-100% inhibition) | C (51-75% inhibition) | D (76-100% inhibition) | C (51-75% inhibition) | D (76-100% inhibition) | A (1-25% inhibition) | 51 to 75% | 51 to 75%
3 | COc1ccc(-c2sc3nc(-c4nccn4C)nc(N4CCC(OC)C4)c3c2-c2ccccc2)cn1.Cl (stereo not drawn) | – | – | – | – | – | – | – | – | D (76-100% inhibition) | B (26-50% inhibition) | D (76-100% inhibition) | A (1-25% inhibition) | D (76-100% inhibition) | 0 (0% inhibition) | 51 to 75% | 26 to 50%
4 | COCCNC(=O)c1sc2nc(-c3nccn3C)nc(N[C@H]3C[C@@H](OC)C3)c2c1-c1ccccc1 [drawing 921] | D (76-100% inhibition) | D (76-100% inhibition) | C (51-75% inhibition) | D (76-100% inhibition) | D (76-100% inhibition) | D (76-100% inhibition) | 51 to 75% | 51 to 75% | – | – | – | – | – | – | – | –
5 | CO[C@H]1C[C@@H](Nc2nc(-c3ncc[nH]3)nc3sc(-c4ccn(C)n4)c(-c4ccccc4)c23)C1 [drawing 910] | B (26-50% inhibition) | C (51-75% inhibition) | A (1-25% inhibition) | B (26-50% inhibition) | B (26-50% inhibition) | B (26-50% inhibition) | 26 to 50% | 26 to 50% | – | – | – | – | – | – | – | –
6 | O=C(c1nc(-c2ccccn2)nc(O)c1O)N1CCCC1 [drawing 831] | – | – | – | – | – | – | – | – | B (26-50% inhibition) | B (26-50% inhibition) | A (1-25% inhibition) | C (51-75% inhibition) | A (1-25% inhibition) | B (26-50% inhibition) | 1 to 25% | 51 to 75%
7 | CO[C@H]1CCC(Nc2nc(-c3nccn3C)nc3sc(-c4ccn(C)n4)c(-c4ccccc4)c23)C1 (stereo partly drawn) [drawing 860] | – | – | – | – | – | – | – | – | D (76-100% inhibition) | B (26-50% inhibition) | D (76-100% inhibition) | B (26-50% inhibition) | D (76-100% inhibition) | B (26-50% inhibition) | 51 to 75% | 26 to 50%
8 | Cn1ccc(-c2sc3nc(-c4nccn4C)nc(N[C@@H]4CC[C@H](O)C4)c3c2-c2ccccc2)n1 (racemic) [drawing 909] | 0 (0% inhibition) | A (1-25% inhibition) | A (1-25% inhibition) | A (1-25% inhibition) | A (1-25% inhibition) | A (1-25% inhibition) | 0% | 0% | – | – | – | – | – | – | – | –
9 | COCCNC(=O)c1sc2nc(-c3nccn3C)nc(N[C@@H]3CC[C@H](OC)C3)c2c1-c1ccccc1 [drawing 925] | D (76-100% inhibition) | D (76-100% inhibition) | D (76-100% inhibition) | D (76-100% inhibition) | D (76-100% inhibition) | D (76-100% inhibition) | 76 to 100% | 76 to 100% | – | – | – | – | – | – | – | –

The next lines start with the values.

Row | KRas Q61H mutant + SOS: % inh. (KRas Q61H mutant; with SOS (Table 7A)) | KRas Q61H mutant: % inh. (KRas Q61H mutant; without SOS (Table 7A)) | KRas wild type + SOS: % inh. (KRas wild type; with SOS (Table 7A)) | KRas wild type % inh. (KRas wild type) | KRas G12C mutant + SOS: % inh. (KRas G12C mutant; with SOS (Table 7A)) | KRas G12C mutant: % inh. (KRas G12C mutant; without SOS (Table 7A)) | inhibition at 20 µM (KRas G12D mutant; [1]) | inhibition at 20 µM (KRas G12D mutant; [2]) | KRas Q61H mutant + SOS: % inh. (KRas Q61H mutant; with SOS) | KRas Q61H mutant: % inh. (KRas Q61H mutant; without SOS) | KRas wild type + SOS: % inh. (KRas wild type; with SOS) | KRas wild type: % inh. (KRas wild type) | KRas G12C mutant + SOS: % inh. (KRas G12C mutant; with SOS) | KRas G12C mutant: % inh. (KRas G12C mutant; without SOS) | inhibition at 20 µM (KRas G12D mutant; [3]) | inhibition at 20 µM (KRas G12D mutant; [4]) | SMILES
10 | – | – | – | – | – | – | – | – | D (76-100% inhibition) | A (1-25% inhibition) | D (76-100% inhibition) | A (1-25% inhibition) | C (51-75% inhibition) | A (1-25% inhibition) | 26 to 50% | 1 to 25% | COCCNc1nc(-c2nccn2C)nc2sc(-c3cc(OC)ccc3Cl)c(-c3ccc(OC)cc3)c12 [drawing 877]
11 | – | – | – | – | – | – | – | – | B (26-50% inhibition) | A (1-25% inhibition) | A (1-25% inhibition) | C (51-75% inhibition) | B (26-50% inhibition) | C (51-75% inhibition) | 1 to 25% | 51 to 75% | Cc1cnc(-c2nc(O)c3scc(-c4ccccn4)c3n2)n1C [drawing 808]
12 | – | – | – | – | – | – | – | – | C (51-75% inhibition) | D (76-100% inhibition) | B (26-50% inhibition) | D (76-100% inhibition) | C (51-75% inhibition) | D (76-100% inhibition) | 26 to 50% | 76 to 100% | COc1ccc(Oc2nc(-c3ccccn3)nc(O)c2OC)cc1 [drawing 815]
13 | – | – | – | – | – | – | – | – | B (26-50% inhibition) | C (51-75% inhibition) | A (1-25% inhibition) | B (26-50% inhibition) | A (1-25% inhibition) | B (26-50% inhibition) | 1 to 25% | 26 to 50% | Cn1ccnc1-c1nc(O)c(O)c(C(=O)N2CCCC2)n1 [drawing 828]
14 | – | – | – | – | – | – | – | – | B (26-50% inhibition) | C (51-75% inhibition) | A (1-25% inhibition) | D (76-100% inhibition) | B (26-50% inhibition) | D (76-100% inhibition) | 1 to 25% | 51 to 75% | O=C(NC1CCCC1)c1nc(-c2ccccn2)nc(O)c1O [drawing 812]
15 | – | – | – | – | – | – | – | – | D (76-100% inhibition) | C (51-75% inhibition) | C (51-75% inhibition) | C (51-75% inhibition) | D (76-100% inhibition) | C (51-75% inhibition) | 51 to 75% | 76 to 100% | COc1cccc(Cn2ccnc2-c2nc(O)c3scc(-c4ccccn4)c3n2)c1 [drawing 850]
